Laboratory results taken from ChEMBL document CHEMBL5463722, “Data for DCP probe BI-5524” (2023).
The source made the active and inactive calls.

Experiments:
[1] = target: Muscarinic acetylcholine receptor M1 (Homo sapiens) (UniProt P11229); assay: M1 Eurofins-Cerep binding assay; set-up: ligand concentration 2 nM; conditions: Compound concentration 10.0 uM
[2] = target: Mu-type opioid receptor (Homo sapiens) (UniProt P35372); assay: mu (MOP) Eurofins-Cerep binding assay; set-up: ligand concentration 0.5 nM; conditions: Compound concentration 10.0 uM
[3] = target: Histamine H1 receptor (Homo sapiens) (UniProt P35367); assay: H1 Eurofins-Cerep binding assay; set-up: ligand concentration 1 nM; conditions: Compound concentration 10.0 uM
[4] = target: Sodium-dependent dopamine transporter (Homo sapiens) (UniProt Q01959); assay: dopamine transporter Eurofins-Cerep binding assay; conditions: Compound concentration 10.0 uM
[5] = target: 5-hydroxytryptamine receptor 1A (Homo sapiens) (UniProt P08908); assay: 5-HT1A Eurofins-Cerep binding assay; set-up: ligand concentration 0.5 nM; conditions: Compound concentration 10.0 uM
[6] = target: D(1A) dopamine receptor (Homo sapiens) (UniProt P21728); assay: D1 Eurofins-Cerep binding assay; set-up: ligand concentration 0.3 nM; conditions: Compound concentration 10.0 uM
[7] = target: D(2) dopamine receptor (Homo sapiens) (UniProt P14416); assay: Agonist activity in the Eurofins Cerep SafetyScreen44 (BI) against D2SH_AGON by Scintillation counting (Cerep_1322); conditions: Compound concentration 10.0 uM
Rattus norvegicus [8] = organism: Rattus norvegicus; assay: Activity against BZD/CENTR/R in the Eurofins Cerep SafetyScreen44 (BI) by Radioactive Assay (Cerep_28); type: protein-complex assay
Neutrophil elastase [9] = target: T1, Neutrophil elastase (Homo sapiens, UniProt P08246); assay: ELANE inhibitor assay (human). (Biochemical assay using purified commercial human ELANE and a fluorescent peptide substrate).
T1 sequence (P08246 whole entry): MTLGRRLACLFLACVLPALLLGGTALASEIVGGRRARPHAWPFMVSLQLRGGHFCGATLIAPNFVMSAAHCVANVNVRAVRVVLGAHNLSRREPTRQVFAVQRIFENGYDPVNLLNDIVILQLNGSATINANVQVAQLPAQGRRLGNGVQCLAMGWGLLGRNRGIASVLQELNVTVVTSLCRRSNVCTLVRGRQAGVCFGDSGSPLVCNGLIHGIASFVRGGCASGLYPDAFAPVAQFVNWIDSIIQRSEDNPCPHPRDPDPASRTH

[10] = target: Glucocorticoid receptor (Homo sapiens) (UniProt P04150); assay: GR Eurofins-Cerep binding assay; conditions: Compound concentration 10.0 uM
[11] = target: Histamine H2 receptor (Homo sapiens) (UniProt P25021); assay: H2 Eurofins-Cerep binding assay; set-up: ligand concentration 0.075 nM; conditions: Compound concentration 10.0 uM
[12] = target: T2, Cholecystokinin receptor type A (Homo sapiens) (UniProt P32238); assay: CCK1 (CCKA) Eurofins-Cerep binding assay; set-up: ligand concentration 0.08 nM
T2 sequence (whole entry): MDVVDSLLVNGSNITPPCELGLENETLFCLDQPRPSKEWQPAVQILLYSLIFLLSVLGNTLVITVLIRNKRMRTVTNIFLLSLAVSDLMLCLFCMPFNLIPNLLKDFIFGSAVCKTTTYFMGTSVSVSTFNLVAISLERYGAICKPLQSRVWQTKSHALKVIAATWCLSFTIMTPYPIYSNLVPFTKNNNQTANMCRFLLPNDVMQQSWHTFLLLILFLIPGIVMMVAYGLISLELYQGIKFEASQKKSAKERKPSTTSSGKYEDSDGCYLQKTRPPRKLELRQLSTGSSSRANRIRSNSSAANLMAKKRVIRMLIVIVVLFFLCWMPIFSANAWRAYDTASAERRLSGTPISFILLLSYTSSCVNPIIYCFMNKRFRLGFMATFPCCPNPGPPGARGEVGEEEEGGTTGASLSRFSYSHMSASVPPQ

[13] = target: Sodium-dependent noradrenaline transporter (Homo sapiens) (UniProt P23975); assay: norepinephrine transporter Eurofins-Cerep binding assay; set-up: ligand concentration 1 nM; conditions: Compound concentration 10.0 uM
[14] = target: 5-hydroxytryptamine receptor 2B (Homo sapiens) (UniProt P41595); assay: 5-HT2B Eurofins-Cerep binding assay; conditions: Compound concentration 10.0 uM
[15] = target: Endothelin-1 receptor (Homo sapiens) (UniProt P25101); assay: ETA Eurofins-Cerep binding assay; set-up: ligand concentration 0.03 nM; conditions: Compound concentration 10.0 uM
[16] = target: Adenosine receptor A2a (Homo sapiens) (UniProt P29274); assay: A2A Eurofins-Cerep binding assay; set-up: ligand concentration 6 nM
[17] = target: Vasopressin V1a receptor (Homo sapiens) (UniProt P37288); assay: V1a Eurofins-Cerep binding assay; set-up: ligand concentration 0.3 nM; conditions: Compound concentration 10.0 uM
Neutrophil elastase [18] = target: T1, Neutrophil elastase; assay: Inhibition of zymosan-stimulated ELANE activity in human plasma
Rattus norvegicus [19] = organism: Rattus norvegicus; assay: KV channel Eurofins-Cerep binding assay; set-up: ligand concentration 0.01 nM; conditions: Compound concentration 10.0 uM
[20] = target: Beta-1 adrenergic receptor (Homo sapiens) (UniProt P08588); assay: beta 1 Eurofins-Cerep binding assay; set-up: ligand concentration 0.3 nM
[21] = target: Beta-2 adrenergic receptor (Homo sapiens) (UniProt P07550); assay: beta 2 Eurofins-Cerep binding assay
[22] = target: 5-hydroxytryptamine receptor 3A (Homo sapiens) (UniProt P46098); assay: 5-HT3 Eurofins-Cerep binding assay; set-up: ligand concentration 0.5 nM; conditions: Compound concentration 10.0 uM
[23] = target: 5-hydroxytryptamine receptor 2A (Homo sapiens) (UniProt P28223); assay: Agonist activity in the Eurofins Cerep SafetyScreen44 (BI) against 5HT2AH_AGON by Scintillation counting (Cerep_471); conditions: Compound concentration 10.0 uM
[24] = target: Delta-type opioid receptor (Homo sapiens) (UniProt P41143); assay: delta (DOP) Eurofins-Cerep binding assay; set-up: ligand concentration 0.5 nM; conditions: Compound concentration 10.0 uM
[25] = target: D(1B) dopamine receptor (Homo sapiens) (UniProt P21918); assay: Activity against D5/H in the Eurofins SafetyScreen44 (BI) by Radioactive Assay (Old_Cerep_17); conditions: Compound concentration 10.0 uM
Caspase-9 (Homo sapiens) = Caspase-9 (Homo sapiens) (UniProt P55211); conditions: Compound concentration 1.0 uM
Description: % Enzyme Activity of Caspase 9 in the Reaction Biology protease panel at 10.0 µM

[26] = target: Muscarinic acetylcholine receptor M3 (Homo sapiens) (UniProt P20309); assay: M3 Eurofins-Cerep binding assay; set-up: ligand concentration 0.2 nM; conditions: Compound concentration 10.0 uM
[27] = target: Muscarinic acetylcholine receptor M2 (Homo sapiens) (UniProt P08172); assay: M2 Eurofins-Cerep binding assay; set-up: ligand concentration 2 nM; conditions: Compound concentration 10.0 uM
[28] = target: Sodium-dependent serotonin transporter (Homo sapiens) (UniProt P31645); assay: 5-HT transporter Eurofins-Cerep binding assay; set-up: ligand concentration 2 nM; conditions: Compound concentration 10.0 uM
[29] = target: Glutamate NMDA receptor (Rattus norvegicus) (UniProt P35439+Q00959+Q00960+Q00961+Q62645+Q8VHN2+Q9R1M7); assay: Inhibitor of NMDA/R in the Eurofins Cerep SafetyScreen44 (BI) by Radioactive Assay (Cerep_66); type: protein-complex assay; conditions: Compound concentration 10.0 uM
[30] = target: MAO-A (amine oxidase [flavin-containing] A) (Homo sapiens, UniProt P21397); assay: Agonist activity in the Eurofins Cerep SafetyScreen44 (BI) against MAO-A_ANTAG by Scintillation counting (Cerep_443); set-up: scale not given: the % may be the effect or the level left; conditions: rat; compound concentration 10 uM; target entry is the homologue from another species; read-out: % Ctrl
[31] = target: Angiotensin-converting enzyme (Homo sapiens) (UniProt P12821); assay: Activity against ACE(HU_AMTCH400) in the Eurofins Cerep SafetyScreen44 (BI) by Photometry (Cerep_3441); conditions: Compound concentration 10.0 uM
[32] = target: 5-hydroxytryptamine receptor 1B (Homo sapiens) (UniProt P28222); assay: 5-HT1B Eurofins-Cerep binding assay; set-up: ligand concentration 1 nM; conditions: Compound concentration 10.0 uM
[33] = target: L-type calcium channel (Cav1.2, alpha-1C), dihydropyridine site (Rattus norvegicus, UniProt P22002); assay: Inhibitor of CA+/DHPSI/R in the Eurofins Cerep SafetyScreen44 (BI) by Radioactive Assay (Cerep_161); type: protein assay; set-up: scale not given: the % may be the effect or the level left; conditions: rat brain, probe [3H](+)PN200-110, compound concentration 10 uM, read-out: % Ctrl

Adenosine receptor A2a (Homo sapiens), sequence (P29274 whole entry): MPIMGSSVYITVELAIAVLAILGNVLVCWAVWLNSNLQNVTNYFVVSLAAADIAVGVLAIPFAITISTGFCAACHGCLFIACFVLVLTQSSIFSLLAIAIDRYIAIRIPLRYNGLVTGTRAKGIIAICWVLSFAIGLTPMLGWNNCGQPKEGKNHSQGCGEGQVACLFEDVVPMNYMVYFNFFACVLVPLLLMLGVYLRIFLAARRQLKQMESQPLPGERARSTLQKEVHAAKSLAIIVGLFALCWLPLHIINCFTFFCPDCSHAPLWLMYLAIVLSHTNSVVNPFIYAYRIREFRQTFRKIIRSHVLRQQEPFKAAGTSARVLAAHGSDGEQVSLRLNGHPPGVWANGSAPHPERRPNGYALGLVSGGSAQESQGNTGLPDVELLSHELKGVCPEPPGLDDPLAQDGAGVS
Beta-2 adrenergic receptor (Homo sapiens), sequence (P07550 whole entry, looked up): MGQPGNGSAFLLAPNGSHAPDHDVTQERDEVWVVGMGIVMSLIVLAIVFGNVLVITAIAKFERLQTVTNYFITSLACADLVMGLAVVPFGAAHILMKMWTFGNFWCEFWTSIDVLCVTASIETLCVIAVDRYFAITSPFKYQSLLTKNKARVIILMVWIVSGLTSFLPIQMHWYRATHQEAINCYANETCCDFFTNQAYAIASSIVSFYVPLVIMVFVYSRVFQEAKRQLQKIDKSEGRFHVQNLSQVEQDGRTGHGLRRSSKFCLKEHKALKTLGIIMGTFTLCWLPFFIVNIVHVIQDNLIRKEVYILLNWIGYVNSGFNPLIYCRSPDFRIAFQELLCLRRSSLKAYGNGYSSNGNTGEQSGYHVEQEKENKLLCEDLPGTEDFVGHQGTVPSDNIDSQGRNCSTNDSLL
Beta-1 adrenergic receptor (Homo sapiens), sequence (P08588 whole entry, looked up): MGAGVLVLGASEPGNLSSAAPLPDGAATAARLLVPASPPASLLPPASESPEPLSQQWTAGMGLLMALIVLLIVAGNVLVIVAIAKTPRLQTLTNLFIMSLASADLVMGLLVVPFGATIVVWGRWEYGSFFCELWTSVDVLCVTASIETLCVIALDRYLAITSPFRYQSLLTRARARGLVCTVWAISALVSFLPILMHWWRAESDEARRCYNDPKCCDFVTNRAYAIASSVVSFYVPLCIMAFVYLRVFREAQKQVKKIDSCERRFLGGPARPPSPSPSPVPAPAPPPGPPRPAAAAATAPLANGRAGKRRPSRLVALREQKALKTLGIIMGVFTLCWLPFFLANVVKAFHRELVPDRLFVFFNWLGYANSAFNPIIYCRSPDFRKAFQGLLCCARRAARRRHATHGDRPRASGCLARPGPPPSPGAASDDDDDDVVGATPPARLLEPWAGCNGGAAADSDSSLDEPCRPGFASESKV
Mu-type opioid receptor (Homo sapiens), sequence (P35372 whole entry): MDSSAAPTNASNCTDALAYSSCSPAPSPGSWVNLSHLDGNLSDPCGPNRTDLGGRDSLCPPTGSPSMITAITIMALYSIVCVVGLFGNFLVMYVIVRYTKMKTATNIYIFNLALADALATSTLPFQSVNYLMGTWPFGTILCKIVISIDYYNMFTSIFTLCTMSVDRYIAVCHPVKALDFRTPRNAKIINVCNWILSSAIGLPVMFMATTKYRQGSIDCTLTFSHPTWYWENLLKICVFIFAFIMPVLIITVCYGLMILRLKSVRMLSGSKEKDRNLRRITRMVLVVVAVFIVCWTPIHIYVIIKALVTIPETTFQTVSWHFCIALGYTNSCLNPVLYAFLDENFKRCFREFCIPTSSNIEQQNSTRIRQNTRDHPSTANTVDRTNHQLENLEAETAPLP
5-hydroxytryptamine receptor 2A (Homo sapiens), sequence (P28223 whole entry): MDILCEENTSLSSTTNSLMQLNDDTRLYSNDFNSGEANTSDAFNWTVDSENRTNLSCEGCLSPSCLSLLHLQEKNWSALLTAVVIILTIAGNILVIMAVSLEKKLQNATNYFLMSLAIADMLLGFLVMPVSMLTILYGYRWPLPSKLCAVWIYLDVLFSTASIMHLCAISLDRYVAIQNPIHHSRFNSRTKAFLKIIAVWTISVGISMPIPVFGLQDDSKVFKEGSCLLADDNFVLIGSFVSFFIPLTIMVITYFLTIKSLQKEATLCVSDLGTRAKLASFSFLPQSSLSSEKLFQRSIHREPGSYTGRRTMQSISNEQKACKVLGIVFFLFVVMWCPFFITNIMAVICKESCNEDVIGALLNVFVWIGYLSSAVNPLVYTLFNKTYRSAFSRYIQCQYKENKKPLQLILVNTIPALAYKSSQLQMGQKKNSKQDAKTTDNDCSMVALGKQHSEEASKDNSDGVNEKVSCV
5-hydroxytryptamine receptor 2B (Homo sapiens), sequence (P41595 whole entry): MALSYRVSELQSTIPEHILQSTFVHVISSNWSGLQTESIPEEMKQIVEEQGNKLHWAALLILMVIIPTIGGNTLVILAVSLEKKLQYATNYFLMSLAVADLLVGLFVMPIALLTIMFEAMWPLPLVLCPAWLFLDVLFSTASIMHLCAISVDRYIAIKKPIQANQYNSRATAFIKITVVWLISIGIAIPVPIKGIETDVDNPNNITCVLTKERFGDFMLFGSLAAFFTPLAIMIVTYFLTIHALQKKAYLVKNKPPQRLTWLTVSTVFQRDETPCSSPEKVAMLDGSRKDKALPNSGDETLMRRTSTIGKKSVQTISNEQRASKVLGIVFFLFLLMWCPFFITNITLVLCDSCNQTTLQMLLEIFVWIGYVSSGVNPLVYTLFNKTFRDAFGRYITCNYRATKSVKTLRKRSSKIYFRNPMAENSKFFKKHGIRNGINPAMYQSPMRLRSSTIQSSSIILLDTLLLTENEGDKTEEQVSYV
Muscarinic acetylcholine receptor M3 (Homo sapiens), sequence (P20309 whole entry, looked up): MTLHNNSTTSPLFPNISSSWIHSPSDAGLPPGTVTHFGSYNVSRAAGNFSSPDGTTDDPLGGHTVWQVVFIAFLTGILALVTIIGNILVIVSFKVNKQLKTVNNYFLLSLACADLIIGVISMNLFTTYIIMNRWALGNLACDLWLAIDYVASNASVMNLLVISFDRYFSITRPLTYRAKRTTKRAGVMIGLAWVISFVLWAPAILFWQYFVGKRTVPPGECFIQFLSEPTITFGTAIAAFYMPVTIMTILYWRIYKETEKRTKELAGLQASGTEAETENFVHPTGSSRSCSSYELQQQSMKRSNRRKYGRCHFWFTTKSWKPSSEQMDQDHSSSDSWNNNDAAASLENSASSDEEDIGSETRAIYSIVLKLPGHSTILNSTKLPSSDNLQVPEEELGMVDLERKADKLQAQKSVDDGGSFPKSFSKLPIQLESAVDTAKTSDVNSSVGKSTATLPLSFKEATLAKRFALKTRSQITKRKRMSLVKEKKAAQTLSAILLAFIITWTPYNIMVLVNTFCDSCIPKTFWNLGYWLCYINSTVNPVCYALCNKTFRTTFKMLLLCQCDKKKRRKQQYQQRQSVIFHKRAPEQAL
5-hydroxytryptamine receptor 3A (Homo sapiens), sequence (P46098 whole entry): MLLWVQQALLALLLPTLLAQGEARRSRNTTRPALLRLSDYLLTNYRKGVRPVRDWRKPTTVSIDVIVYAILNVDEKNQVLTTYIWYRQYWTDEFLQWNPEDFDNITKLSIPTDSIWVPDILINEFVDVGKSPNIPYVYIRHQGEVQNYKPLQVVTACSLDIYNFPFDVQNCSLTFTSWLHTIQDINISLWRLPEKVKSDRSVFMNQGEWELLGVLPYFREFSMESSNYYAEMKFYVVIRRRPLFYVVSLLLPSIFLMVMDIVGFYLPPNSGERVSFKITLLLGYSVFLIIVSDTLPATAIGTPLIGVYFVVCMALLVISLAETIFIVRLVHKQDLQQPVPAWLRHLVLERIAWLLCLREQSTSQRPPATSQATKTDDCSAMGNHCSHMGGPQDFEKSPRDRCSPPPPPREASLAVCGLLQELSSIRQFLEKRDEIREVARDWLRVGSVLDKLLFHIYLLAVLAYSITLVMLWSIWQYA
Muscarinic acetylcholine receptor M1 (Homo sapiens), sequence (P11229 whole entry): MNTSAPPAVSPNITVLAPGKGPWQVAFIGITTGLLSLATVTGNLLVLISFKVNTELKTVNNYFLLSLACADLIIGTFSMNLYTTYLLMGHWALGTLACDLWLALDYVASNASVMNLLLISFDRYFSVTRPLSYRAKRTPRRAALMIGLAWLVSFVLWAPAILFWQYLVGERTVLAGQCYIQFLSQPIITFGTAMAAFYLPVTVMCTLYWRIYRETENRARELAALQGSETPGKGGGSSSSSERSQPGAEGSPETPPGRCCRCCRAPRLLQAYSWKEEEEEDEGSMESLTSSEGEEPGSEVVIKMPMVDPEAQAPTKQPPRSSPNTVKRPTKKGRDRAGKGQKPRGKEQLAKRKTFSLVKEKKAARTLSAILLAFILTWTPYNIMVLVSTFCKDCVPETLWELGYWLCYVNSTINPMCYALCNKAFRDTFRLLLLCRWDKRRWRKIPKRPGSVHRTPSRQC
Caspase-9 (Homo sapiens), sequence (P55211 1-315 limits assumed): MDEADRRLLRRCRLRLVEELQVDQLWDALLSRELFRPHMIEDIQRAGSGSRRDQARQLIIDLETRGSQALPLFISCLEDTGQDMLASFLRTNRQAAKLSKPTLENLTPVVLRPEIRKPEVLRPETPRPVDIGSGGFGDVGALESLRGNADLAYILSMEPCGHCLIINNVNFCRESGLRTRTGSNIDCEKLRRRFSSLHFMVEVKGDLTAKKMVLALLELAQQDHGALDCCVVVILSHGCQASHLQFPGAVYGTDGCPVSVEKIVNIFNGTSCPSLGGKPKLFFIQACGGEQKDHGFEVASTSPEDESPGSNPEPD
Caspase-9 (Homo sapiens), sequence (P55211 331-416 limits assumed): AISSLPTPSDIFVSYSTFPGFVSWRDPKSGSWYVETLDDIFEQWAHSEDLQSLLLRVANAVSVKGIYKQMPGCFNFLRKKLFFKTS
Histamine H2 receptor (Homo sapiens), sequence (P25021 whole entry): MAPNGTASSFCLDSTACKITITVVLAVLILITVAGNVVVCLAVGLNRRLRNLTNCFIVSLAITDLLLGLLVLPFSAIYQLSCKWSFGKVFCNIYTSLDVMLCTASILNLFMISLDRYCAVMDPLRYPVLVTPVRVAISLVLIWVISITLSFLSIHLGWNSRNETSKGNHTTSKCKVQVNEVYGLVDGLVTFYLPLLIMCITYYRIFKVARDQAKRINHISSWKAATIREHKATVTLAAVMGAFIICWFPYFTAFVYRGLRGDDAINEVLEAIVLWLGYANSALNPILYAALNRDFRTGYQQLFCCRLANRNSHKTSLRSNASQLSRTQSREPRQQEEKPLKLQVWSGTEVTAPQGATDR

CC(C)(O)CNC(=O)N1C(=O)N(c2cccc(C(F)(F)F)c2)C2=C(C(=O)CC2)[C@H]1c1ccc(C#N)cc1
inactive: residual activity [1] 103% | residual activity [2] 82% | residual activity [3] 108% | residual activity [4] 110% | residual activity [5] 72% | residual activity [6] 96% | residual activity [7] 89% | residual activity (Rattus norvegicus [8]; Compound concentration 10.0 uM) 119% | residual activity (Rattus norvegicus [8]; Compound concentration 30.0 uM) 116% | residual activity [10] 107% | residual activity [11] 114% | residual activity ([12]; Compound concentration 10.0 uM) 89% | residual activity ([12]; Compound concentration 30.0 uM) 89% | residual activity [13] 98% | residual activity [14] 130% | residual activity [15] 99% | residual activity ([16]; Compound concentration 10.0 uM) 100% | residual activity ([16]; Compound concentration 30.0 uM) 83% | residual activity [17] 102% | residual activity (Rattus norvegicus [19]) 102% | residual activity ([20]; Compound concentration 10.0 uM) 100% | residual activity ([20]; Compound concentration 30.0 uM) 100% | residual activity ([21]; Compound concentration 10.0 uM) 87% | residual activity ([21]; Compound concentration 30.0 uM) 92% | residual activity [22] 108% | residual activity [23] 69% | residual activity [24] 101% | residual activity [25] 103% | % Enzyme Activity (relative to DMSO controls, average n=2) (Caspase-9 (Homo sapiens)) 98.8% | residual activity [26] 84% | residual activity [27] 121%
active: IC50 (Neutrophil elastase [9]) 0.5 nM | IC50 (Neutrophil elastase [18]) 1.2 nM

CC(C)(O)CNC(=O)N1C(=O)N(c2cccc(C(F)(F)F)c2)C2=C(C(=O)CC2)[C@@H]1c1ccc(C#N)cc1
101% (not active): activity at 10 µM [30]
41 nM (not active): IC50 (Neutrophil elastase [9])
104% (not active): activity at 10 µM [33]
inactive: residual activity [1] 114% | residual activity [2] 104% | residual activity [3] 101% | residual activity [4] 98% | residual activity [5] 91% | residual activity [28] 105% | residual activity [6] 100% | residual activity [7] 99% | residual activity (Rattus norvegicus [8]; Compound concentration 10.0 uM) 101% | residual activity [10] 96% | residual activity [11] 105% | residual activity ([12]; Compound concentration 10.0 uM) 97% | residual activity [13] 95% | residual activity [29] 96% | residual activity [14] 97% | residual activity [15] 95% | residual activity ([16]; Compound concentration 10.0 uM) 109% | residual activity [17] 99% | residual activity (Rattus norvegicus [19]) 101% | residual activity ([20]; Compound concentration 10.0 uM) 89% | residual activity ([21]; Compound concentration 10.0 uM) 101% | residual activity [31] 98% | residual activity [32] 86% | residual activity [22] 81% | residual activity [23] 111% | residual activity [24] 100% | % Enzyme Activity (relative to DMSO controls, average n=2) (Caspase-9 (Homo sapiens)) 92.6% | residual activity [26] 95% | residual activity [27] 103%
492 nM (not active): IC50 (Neutrophil elastase [18])
